Test results published in ChEMBL document CHEMBL1201862, “PubChem BioAssay data set” (2004).
The source made the active and inactive calls.

Experiments:
[1] = Luminescence Cell-Based Dose Response HTS to Identify Inhibitors of 5'UTR Stem-Loop Driven Prion Protein mRNA Translation in H4 Neuroglioblastoma Cells. [Related pubchem assays: 1827 (Project Summary), 1813 (Primary HTS)]; type: functional
[2] = luciferase reporter signal suppression in cells – H4 neuroglioma cells, luminescence, dose response (AID 1990); type: functional, cell-based
[3] = alpha-synuclein stem-loop luciferase translation blockers – H4 neuroglioma cells, luminescence, confirmation (AID 1988); type: functional, cell-based
[4] = molecular target: T1, Corticotropin-releasing factor receptor 2/Corticotropin-releasing factor-binding protein (Homo sapiens, UniProt P24387+Q13324); assay: activators of CRF receptor 2 with binding protein – uHTS hits, confirmation (AID 602473); type: functional; details: read-out: EC50_Mean
T1 sequence (Q13324 whole entry): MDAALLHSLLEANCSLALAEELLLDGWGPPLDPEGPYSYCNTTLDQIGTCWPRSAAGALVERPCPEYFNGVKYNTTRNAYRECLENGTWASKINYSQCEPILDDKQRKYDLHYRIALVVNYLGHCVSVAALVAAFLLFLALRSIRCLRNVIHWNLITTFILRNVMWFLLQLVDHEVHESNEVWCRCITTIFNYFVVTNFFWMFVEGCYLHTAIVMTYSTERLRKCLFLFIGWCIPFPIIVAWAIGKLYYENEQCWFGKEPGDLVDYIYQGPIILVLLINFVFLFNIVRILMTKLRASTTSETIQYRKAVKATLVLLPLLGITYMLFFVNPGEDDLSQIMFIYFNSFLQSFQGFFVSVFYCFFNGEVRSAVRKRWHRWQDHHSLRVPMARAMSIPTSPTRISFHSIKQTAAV
T1 sequence (P24387 whole entry): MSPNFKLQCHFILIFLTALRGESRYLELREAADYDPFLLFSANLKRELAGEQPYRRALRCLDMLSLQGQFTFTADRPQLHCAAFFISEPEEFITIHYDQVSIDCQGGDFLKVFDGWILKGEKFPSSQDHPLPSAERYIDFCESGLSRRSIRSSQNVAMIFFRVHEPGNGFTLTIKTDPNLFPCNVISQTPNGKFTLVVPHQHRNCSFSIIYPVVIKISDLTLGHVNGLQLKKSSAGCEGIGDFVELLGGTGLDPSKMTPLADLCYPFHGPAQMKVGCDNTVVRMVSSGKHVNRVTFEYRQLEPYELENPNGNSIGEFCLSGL

Cytochrome P450 2C9 = Cytochrome P450 2C9 (Homo sapiens, UniProt P11712)
Sequence of Cytochrome P450 2C9 (P11712 whole entry): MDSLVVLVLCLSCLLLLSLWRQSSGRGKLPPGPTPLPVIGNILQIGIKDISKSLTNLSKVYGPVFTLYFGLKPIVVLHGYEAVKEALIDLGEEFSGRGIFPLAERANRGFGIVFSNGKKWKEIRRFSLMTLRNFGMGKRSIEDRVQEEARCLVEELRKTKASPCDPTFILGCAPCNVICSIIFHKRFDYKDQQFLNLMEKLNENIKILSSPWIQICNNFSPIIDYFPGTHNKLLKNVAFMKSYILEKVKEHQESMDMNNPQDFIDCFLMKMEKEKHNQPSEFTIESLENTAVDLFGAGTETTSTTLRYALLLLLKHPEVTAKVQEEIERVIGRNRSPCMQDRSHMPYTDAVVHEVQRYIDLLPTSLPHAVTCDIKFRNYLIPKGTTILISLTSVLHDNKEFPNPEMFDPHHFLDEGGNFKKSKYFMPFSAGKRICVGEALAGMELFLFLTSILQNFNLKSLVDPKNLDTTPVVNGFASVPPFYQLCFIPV

Cytochrome P450 2D6 = Cytochrome P450 2D6 (Homo sapiens, UniProt P10635);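 further: CYP2D6 member of a cytochrome P450 panel assay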
Sequence of Cytochrome P450 2D6 (P10635 whole entry): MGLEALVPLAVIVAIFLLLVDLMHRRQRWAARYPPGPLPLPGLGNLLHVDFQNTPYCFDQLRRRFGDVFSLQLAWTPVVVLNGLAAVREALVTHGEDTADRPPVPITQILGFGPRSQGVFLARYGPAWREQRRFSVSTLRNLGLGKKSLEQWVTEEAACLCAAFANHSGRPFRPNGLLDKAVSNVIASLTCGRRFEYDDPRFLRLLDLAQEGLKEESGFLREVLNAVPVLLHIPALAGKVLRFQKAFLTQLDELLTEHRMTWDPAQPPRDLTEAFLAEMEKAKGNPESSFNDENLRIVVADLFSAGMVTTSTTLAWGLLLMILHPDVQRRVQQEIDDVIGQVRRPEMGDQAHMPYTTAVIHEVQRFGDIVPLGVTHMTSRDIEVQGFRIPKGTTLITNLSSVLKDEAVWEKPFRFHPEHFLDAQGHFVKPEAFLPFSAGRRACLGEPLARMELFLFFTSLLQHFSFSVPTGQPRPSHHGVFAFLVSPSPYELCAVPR

Cytochrome P450 3A4 = Cytochrome P450 3A4 (Homo sapiens, UniProt P08684);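 further: CYP3A4 tested as one member of a cytochrome P450 panel screen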
Sequence of Cytochrome P450 3A4 (P08684 whole entry): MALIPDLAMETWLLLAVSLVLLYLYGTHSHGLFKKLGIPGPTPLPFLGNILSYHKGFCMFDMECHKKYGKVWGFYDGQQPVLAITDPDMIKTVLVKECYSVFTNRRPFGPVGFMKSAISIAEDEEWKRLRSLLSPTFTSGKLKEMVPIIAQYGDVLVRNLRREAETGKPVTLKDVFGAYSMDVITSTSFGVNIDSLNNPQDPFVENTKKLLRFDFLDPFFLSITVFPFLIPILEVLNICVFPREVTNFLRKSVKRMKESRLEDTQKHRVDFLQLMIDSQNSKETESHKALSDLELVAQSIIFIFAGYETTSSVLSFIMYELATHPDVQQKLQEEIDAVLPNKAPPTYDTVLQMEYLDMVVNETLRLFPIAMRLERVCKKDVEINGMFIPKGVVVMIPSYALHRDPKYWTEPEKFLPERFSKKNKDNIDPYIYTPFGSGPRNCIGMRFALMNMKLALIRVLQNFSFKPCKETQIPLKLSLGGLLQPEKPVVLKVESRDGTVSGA

Cytochrome P450 1A2 = molecular target: T2, Cytochrome P450 1A2 (Homo sapiens, UniProt P05177);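 further: PubChem cytochrome P450 panel assay, CYP1A2 panel member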
T2 sequence (P05177 whole entry): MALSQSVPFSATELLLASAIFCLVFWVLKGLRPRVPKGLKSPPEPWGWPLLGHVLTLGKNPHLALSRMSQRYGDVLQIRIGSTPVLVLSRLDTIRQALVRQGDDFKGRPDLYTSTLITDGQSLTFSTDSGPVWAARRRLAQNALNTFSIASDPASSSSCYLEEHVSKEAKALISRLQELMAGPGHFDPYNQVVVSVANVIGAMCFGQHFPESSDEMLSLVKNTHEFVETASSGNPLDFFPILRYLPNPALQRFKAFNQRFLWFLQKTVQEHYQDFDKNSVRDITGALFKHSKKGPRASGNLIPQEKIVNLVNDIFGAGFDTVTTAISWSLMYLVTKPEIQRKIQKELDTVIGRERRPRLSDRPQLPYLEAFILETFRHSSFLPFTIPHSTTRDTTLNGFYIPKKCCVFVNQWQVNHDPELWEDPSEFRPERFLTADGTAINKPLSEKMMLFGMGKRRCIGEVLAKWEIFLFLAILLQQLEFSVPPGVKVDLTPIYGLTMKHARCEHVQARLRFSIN

Cytochrome P450 2C19 = Cytochrome P450 2C19 (Homo sapiens, UniProt P33261); assay: Cytochrome panel assay with activity outcomes. Panel member name: p450-cyp2c19 Compounds with AC50 equal or less than 10 uM are considered active; type: functional
Sequence of Cytochrome P450 2C19 (P33261 whole entry): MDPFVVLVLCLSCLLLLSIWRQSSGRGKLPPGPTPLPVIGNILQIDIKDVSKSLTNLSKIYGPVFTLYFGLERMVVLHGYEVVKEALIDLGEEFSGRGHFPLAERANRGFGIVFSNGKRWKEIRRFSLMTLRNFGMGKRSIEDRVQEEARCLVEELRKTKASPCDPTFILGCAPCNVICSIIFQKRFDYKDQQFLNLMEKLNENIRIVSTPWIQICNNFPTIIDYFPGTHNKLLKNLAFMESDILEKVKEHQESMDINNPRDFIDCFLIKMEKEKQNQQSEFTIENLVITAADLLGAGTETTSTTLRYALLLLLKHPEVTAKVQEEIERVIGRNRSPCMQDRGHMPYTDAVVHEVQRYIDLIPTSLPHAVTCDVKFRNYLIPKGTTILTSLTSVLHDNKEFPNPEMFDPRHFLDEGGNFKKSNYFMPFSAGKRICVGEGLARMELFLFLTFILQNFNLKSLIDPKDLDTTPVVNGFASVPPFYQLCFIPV

COc1ccc(NC(=O)c2cc(S(=O)(=O)N3CCCCC3)c[nH]2)cc1Cl
EC50 [1]: 18.4 µM (active)
EC50 [2]: 23.7 µM (active)
EC50 [3]: > 120 µM (not active)

CN(C)CCNC(=O)C(=O)NCC1OCCCN1S(=O)(=O)c1cccs1 (centres undefined)
EC50 [1]: > 120 µM (not active)
EC50 [2]: > 120 µM (not active)
EC50 [3]: > 120 µM (not active)

O=C(NCC(c1ccco1)N1CCCC1)c1cc2cc(Cl)ccc2o1 (centres undefined)
EC50 [4]: > 53 µM (inactive)

CCCCCC(=O)Nc1cc2nc(O)cc(COC)c2cc1C
AC50 (Cytochrome P450 2C9): 10 µM (inconclusive)

CC(=O)Nc1ccc(S(=O)(=O)NC(CC(=O)NCCC2=CCCCC2)C(C)C)cc1 (centres undefined)
AC50 (Cytochrome P450 2C9): 8.91 µM (inconclusive)
AC50 (Cytochrome P450 2D6): 0.708 µM (inconclusive)

COc1cccc(Cn2c(=O)c(C)nc3cnc(Nc4ccccc4)nc32)c1
AC50 (Cytochrome P450 2D6): 1 µM (inconclusive)

CCOc1cc2[nH]c(=O)n(CCC(=O)NCc3ccc(OC)cc3)c(=O)c2cc1OCC
AC50 (Cytochrome P450 2C9): 2 µM (inconclusive)

CN(CCc1ccc(Cl)c(Cl)c1)C[C@@H](O)COc1ccc(NS(C)(=O)=O)cc1
AC50 (Cytochrome P450 3A4): 15.8 µM (inconclusive)
AC50 (Cytochrome P450 1A2): 15.8 µM (inconclusive)

COc1ccc(-n2c(SCC(=O)Nc3ccccc3)nnc2-c2ccoc2C)cc1
EC50 [1]: 29.7 µM (active)
EC50 [2]: > 120 µM (not active)
EC50 [3]: 15.9 µM (active)

CCCNS(=O)(=O)c1ccc(Oc2ncc(C(F)(F)F)cc2Cl)cc1
EC50 [4]: > 53 µM (inactive)

O=C1c2ccccc2NC(c2ccc(F)cc2)N1Cc1ccco1 (centres undefined)
AC50 (Cytochrome P450 3A4): 14.1 µM (inconclusive)
AC50 (Cytochrome P450 2D6): 0.398 µM (inconclusive)

COc1ccccc1CNc1ncncc1-c1cccc(NS(C)(=O)=O)c1
AC50 (Cytochrome P450 2D6): 12.6 µM (inconclusive)

c1ccc(Nc2ncnc3ccc(-c4ccoc4)cc23)cc1
AC50 (Cytochrome P450 2D6): 20 µM (inconclusive)

c1ccc(-c2ccc(N3CC4(CCNCC4)C3)cc2)cc1
AC50 (Cytochrome P450 3A4): 25.1 µM (inconclusive)
AC50 (Cytochrome P450 2D6): 25.1 µM (inconclusive)

COc1ccc([N+](=O)[O-])cc1COc1ccc2c(-c3ccccc3)cc(=O)oc2c1
AC50 (Cytochrome P450 2C19; read-out: AC50): 3.55 µM (inconclusive)

C/C(=N\OCc1cccc(C(=O)O)c1)c1ccc(Cl)cc1
EC50 [1]: 0.254 µM (active)
EC50 [2]: 7.12 µM (inconclusive)
EC50 [3]: 4.77 µM (active)

CNc1ncncc1-c1ccccc1CN(C)C
AC50 (Cytochrome P450 2C19): inconclusive

CS(=O)(=O)Nc1cccc(-c2nc(N3CCNCC3)c3ccccc3n2)c1
AC50 (Cytochrome P450 1A2): 20 µM (inconclusive)

Cc1ccc(NC(=O)CN2CCC(NC(=O)c3cccc(F)c3)CC2)cc1C
EC50 [1]: 21.6 µM (active)
EC50 [2]: > 120 µM (not active)
EC50 [3]: > 120 µM (not active)

CCCCC#Cc1nc(N)c2ncn([C@@H]3O[C@@H](C(=O)NCC)[C@H](O)[C@@H]3O)c2n1
AC50 (Cytochrome P450 2C9): 25.1 µM (inconclusive)
AC50 (Cytochrome P450 3A4): 15.8 µM (inconclusive)
AC50 (Cytochrome P450 2C19; read-out: AC50): 39.8 µM (inconclusive)

COCCn1c(=O)c(-c2cc(F)cc(F)c2)nc2cnc(N(C)C)nc21
AC50 (Cytochrome P450 1A2): 5.01 µM (inconclusive)

COc1cccc(NC(=O)Cc2c(C(=O)O)[nH]c3ccccc23)c1
AC50 (Cytochrome P450 2C9): 22.4 µM (inconclusive)
AC50 (Cytochrome P450 3A4): 15.8 µM (inconclusive)

O=c1cnc2cnc(Nc3ccccc3)nc2n1C1CC1
AC50 (Cytochrome P450 2C9): 31.6 µM (inconclusive)
AC50 (Cytochrome P450 3A4): 25.1 µM (inconclusive)
AC50 (Cytochrome P450 2C19; read-out: AC50): 20 µM (inconclusive)

COc1ccc(-n2c(=O)c(CCc3ccccc3)nc3cnc(OC)nc32)cc1
AC50 (Cytochrome P450 2C9): 7.94 µM (inconclusive)
AC50 (Cytochrome P450 2D6): 20 µM (inconclusive)

COC(=O)N1CCC2(CCCN(Cc3ccc(C#N)cc3)C2)CC1
AC50 (Cytochrome P450 3A4): 15.8 µM (inconclusive)
AC50 (Cytochrome P450 2C19; read-out: AC50): 7.94 µM (inconclusive)

Oc1c(CN2CCOCC2)ccc(CN2CCOCC2)c1O
AC50 (Cytochrome P450 2C9): 7.94 µM (inconclusive)

Cc1cccc(/C=C2\CCC(=C3SCCCS3)C2=O)c1
EC50 [1]: 9.28 µM (active)
EC50 [2]: 5.22 µM (active)
EC50 [3]: 8.14 µM (active)

Cc1cc2cccc(C)c2nc1SCC(=O)N(C)c1nc(-c2ccccc2)cs1
AC50 (Cytochrome P450 2C9): 2.82 µM (inconclusive)

CCc1ccc(NC(=O)C(CC)c2ccccc2)cc1 (centres undefined)
EC50 [4]: 10.4 µM (active)

COC(=O)c1c(C)oc2ccc(N(C(=O)c3ccncc3)S(=O)(=O)c3ccc(C)cc3)cc12
EC50 [1]: 10.9 µM (active)
EC50 [2]: > 120 µM (not active)
EC50 [3]: 8.07 µM (active)

Cc1ccccc1NC(=O)NC1(C(=O)N2CCOCC2)CCCCC1
EC50 [1]: > 120 µM (not active)
EC50 [2]: > 120 µM (not active)
EC50 [3]: > 120 µM (not active)

Cn1cc(-c2nc3cncnc3n(Cc3ccc(F)cc3)c2=O)c2ccccc21
AC50 (Cytochrome P450 1A2): 1.26 µM (inconclusive)

CC(CNC(=O)c1ccc(NC2=NC3CS(=O)(=O)CC3S2)cc1)c1ccccc1 (centres undefined)
EC50 [4]: > 53 µM (inactive)

CCC/C=C(\CCC)C(NS(=O)(=O)c1ccccc1)c1ccc(C(F)(F)F)cc1 (centres undefined)
AC50 (Cytochrome P450 1A2): 12.6 µM (inconclusive)

COc1ccc(CNC(=O)[C@H]2C[C@@H]2[C@H](NP(=O)(c2ccccc2)c2ccccc2)c2ccccc2)cc1OC
AC50 (Cytochrome P450 2C9): 25.1 µM (inconclusive)

CC12CCC(C(=O)Nc3cccc4ccccc34)(C1Br)C2(C)C (centres undefined)
AC50 (Cytochrome P450 2C9): 2.51 µM (inconclusive)
AC50 (Cytochrome P450 2D6): 20 µM (inconclusive)

Cc1cc(C)c(/C=C2/C(=O)Nc3ccccc32)[nH]1
AC50 (Cytochrome P450 2C9): 2.51 µM (inconclusive)
AC50 (Cytochrome P450 2D6): 0.398 µM (inconclusive)

NCOC(=O)Cc1ccc(Br)cc1
AC50 (Cytochrome P450 1A2): 0.2 µM (active)

c1ccc2sc(N3CCN(Cc4ccc5c(c4)OCO5)CC3)nc2c1
AC50 (Cytochrome P450 2C9): 7.94 µM (inconclusive)
AC50 (Cytochrome P450 2D6): 39.8 µM (inconclusive)

CCCN[C@@H]1CCc2c(OC)cccc2[C@@H]1C
AC50 (Cytochrome P450 1A2): 31.6 µM (inconclusive)

c1csc(CNc2ncncc2-c2ccoc2)c1
AC50 (Cytochrome P450 2C9): 0.794 µM (inconclusive)

O=C1C(c2ccccn2)=[N+]([O-])c2ccccc21
AC50 (Cytochrome P450 1A2): 0.158 µM (active)

O=C1c2ccccc2C(=O)N1CC1CCCO1 (centres undefined)
AC50 (Cytochrome P450 2C9): 0.398 µM (inconclusive)
AC50 (Cytochrome P450 2C19; read-out: AC50): 0.355 µM (inconclusive)

COc1cccc(Nc2ncc3nc(-c4cccs4)c(=O)n(-c4ccccc4)c3n2)c1
AC50 (Cytochrome P450 3A4): 20 µM (inconclusive)
AC50 (Cytochrome P450 1A2): 3.16 µM (inconclusive)

CC(=O)OC[C@H]1O[C@@H](O/N=C2/[C@H]3O[C@@H]3[C@@H](O)[C@H]3[C@H]2CCn2c(=O)n(-c4ccccc4)c(=O)n23)[C@H](OC(C)=O)[C@@H](OC(C)=O)[C@@H]1OC(C)=O
AC50 (Cytochrome P450 2D6): 3.16 µM (inconclusive)
AC50 (Cytochrome P450 2C19): inconclusive

Cc1cc(C)c(OCC(=O)Nc2ccccc2N2CCOCC2)c(C)c1
EC50 [4]: > 53 µM (inactive)

CCOC(=O)c1c(C)n(C)c2ccc(OC)c(NS(=O)(=O)c3ccc(Cl)s3)c12
AC50 (Cytochrome P450 2C9): 3.16 µM (inconclusive)
AC50 (Cytochrome P450 3A4): 1.58 µM (inconclusive)
AC50 (Cytochrome P450 1A2): 5.62 µM (inconclusive)

Cc1ccc(SCN2CCCCC2)cc1.O=C(Cl)c1ccc([N+](=O)[O-])cc1
AC50 (Cytochrome P450 2C19; read-out: AC50): 2.51 µM (inconclusive)

O=C(Nc1cc(C(F)(F)F)ccc1Cl)C(Sc1cccc[n+]1[O-])c1ccccc1 (centres undefined)
EC50 [4]: > 53 µM (inactive)

CCOc1ccc(C(C)NC(=S)NCc2ccc(Cl)cc2)cc1 (centres undefined)
EC50 [4]: 14.6 µM (active)

COc1ccc2[nH]cc(CCNc3ncncc3-c3c(C)noc3C)c2c1
AC50 (Cytochrome P450 2C9): 1.26 µM (inconclusive)
AC50 (Cytochrome P450 2D6): 20 µM (inconclusive)

COc1ccc(/C(O)=C(\C#N)c2nc3ccccc3n2C)cc1OC
AC50 (Cytochrome P450 2C9): 0.251 µM (inconclusive)
AC50 (Cytochrome P450 3A4): 3.55 µM (inconclusive)
AC50 (Cytochrome P450 2D6): 1.58 µM (inconclusive)
AC50 (Cytochrome P450 2C19; read-out: AC50): 39.8 µM (inconclusive)

CC(=O)Nc1c(C(=O)N2CCOCC2)cnn1-c1ccc(C)c(C)c1
AC50 (Cytochrome P450 3A4): 3.98 µM (inconclusive)
AC50 (Cytochrome P450 2C19): inconclusive

COC(=O)[C@@H](NC(=O)Nc1ccc(C(C)=O)cc1)C(C)C
AC50 (Cytochrome P450 2C9): 3.55 µM (inconclusive)
